# Measurements reported in PubChem BioAssay (NCI).
#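 Each compound was tested at five concentrations against cells in 96-well plates for 48 hours. Definition used: TGI = concentration required for complete inhibition of growth.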
# Columns and labels:
# Test in all cases: NCI anticancer screen, dose series, 48 h
# [1] = system: SF-295 CNS
# [2] = system: MOLT-4 leukemia
# [3] = system: MDA-MB-435
# [4] = system: HCT-116 colon
# [5] = system: UACC-62 melanoma
# [6] = system: SF-268 CNS
# [7] = system: HOP-62 NSCLC
# [8] = system: U251 CNS
# [9] = system: OVCAR-3 ovarian
# [10] = system: PC-3 prostate
# [11] = system: COLO 205 colon
# [12] = system: MDA-MB-231 breast
# [13] = system: HT29 colon
# [14] = system: A498 renal
# [15] = system: RPMI-8226 leukemia
# [16] = system: NCI-H460 lung
SMILES,TGI [1],TGI [2],TGI [3],TGI [4],TGI [5],TGI [6],TGI [7],TGI [8],TGI [9],TGI [10],TGI [11],TGI [12],TGI [13],TGI [14],TGI [15],TGI [16]
O=C(NNC(=S)NCc1ccccc1)c1csc(NC(=S)NC2CCCCC2)n1,> 100 µM,> 100 µM,82.9 µM,72.3 µM,> 100 µM,> 100 µM,> 100 µM,> 100 µM,> 100 µM,> 100 µM,49.6 µM,83.3 µM,12.1 µM,> 100 µM,58.2 µM,–
CCN(CC)C(=S)SC(C(=O)Nc1nnc(-c2ccccc2)o1)c1ccccc1 (configuration not stated),> 100 µM,> 100 µM,34.8 µM,34.7 µM,–,–,> 100 µM,61.4 µM,41.8 µM,66.8 µM,84.4 µM,> 100 µM,41.8 µM,40.7 µM,> 100 µM,31.6 µM
OC(c1ccc2c(c1)OCO2)c1ccc2c(c1)OCO2,> 100 µM,> 100 µM,> 100 µM,> 100 µM,> 100 µM,> 100 µM,> 100 µM,> 100 µM,> 100 µM,> 100 µM,> 100 µM,> 100 µM,> 100 µM,> 100 µM,> 100 µM,> 100 µM
O=C1NNC2NC(=O)C3(NN2C1=O)c1ccccc1-c1ccccc13 (configuration not stated),> 100 µM,–,> 100 µM,> 100 µM,> 100 µM,> 100 µM,> 100 µM,> 100 µM,> 100 µM,> 100 µM,> 100 µM,> 100 µM,> 100 µM,> 100 µM,–,> 100 µM
CCN(CC)c1ccc(/C=C/C(=O)c2cc(C(C)(C)C)c(O)c(C(C)(C)C)c2)cc1,7.98 µM,> 100 µM,13.3 µM,> 39.1 µM,> 100 µM,> 52.9 µM,> 100 µM,11.9 µM,> 100 µM,> 100 µM,14.7 µM,48.1 µM,9.52 µM,> 100 µM,38.8 µM,38.2 µM
COC(=O)C1Cc2ccc3c(c2C1=O)CCCC3 (configuration not stated),> 100 µM,> 100 µM,> 100 µM,> 100 µM,> 100 µM,> 100 µM,> 100 µM,> 100 µM,> 100 µM,> 100 µM,> 100 µM,> 100 µM,> 100 µM,> 100 µM,> 100 µM,> 100 µM
NC(=O)SCCC(N)C(=O)O (configuration not stated),> 100 µM,> 100 µM,> 100 µM,> 100 µM,> 100 µM,> 100 µM,> 100 µM,> 100 µM,> 100 µM,> 100 µM,> 100 µM,> 100 µM,> 100 µM,> 100 µM,> 100 µM,> 100 µM
Cn1c2ccccc2c(=O)c2cccc(C(=O)NCC(=O)O)c21,> 100 µM,> 100 µM,> 100 µM,> 100 µM,> 100 µM,> 100 µM,> 100 µM,> 100 µM,> 100 µM,> 100 µM,> 100 µM,> 100 µM,> 100 µM,–,> 100 µM,> 100 µM
COc1nc2c(c(=O)n1C)N=C(c1ccccc1)[C@H](C(CC(=O)c1ccccc1)c1ccccc1)C(c1ccccc1)N2 (some centres not stated),> 100 µM,57.1 µM,> 100 µM,> 100 µM,> 100 µM,–,> 100 µM,> 100 µM,> 100 µM,> 100 µM,> 100 µM,78.7 µM,> 100 µM,> 100 µM,> 100 µM,–
C#Cc1cc(Br)c(OC(=O)C(C)(C)C)c(-c2cc(C#C)cc(Br)c2OC(=O)C(C)(C)C)c1,> 100 µM,> 100 µM,> 100 µM,> 100 µM,> 100 µM,> 100 µM,> 100 µM,> 100 µM,> 100 µM,> 100 µM,> 100 µM,> 100 µM,> 100 µM,> 100 µM,46.4 µM,> 100 µM
CCOc1ccccc1-c1nc2c(s1)C(=O)c1ccccc1C2=O,25.1 µM,> 100 µM,4.31 µM,29.3 µM,13.8 µM,29 µM,28.7 µM,27.7 µM,8.01 µM,29.6 µM,58.9 µM,12.7 µM,–,29.4 µM,54.8 µM,39.2 µM
CN1C(=O)C(O)CC1c1ccccc1C(F)(F)F (configuration not stated),> 100 µM,> 100 µM,> 100 µM,> 100 µM,> 100 µM,–,> 100 µM,> 100 µM,> 100 µM,> 100 µM,> 100 µM,> 100 µM,> 100 µM,> 100 µM,> 100 µM,> 100 µM
COC(=O)C(COC(=O)/C=C/c1ccc(OC(C)=O)c(OC(C)=O)c1)NC(=O)/C=C/c1ccc(OC(C)=O)c(OC(C)=O)c1 (configuration not stated),–,> 100 µM,> 100 µM,42.6 µM,35.1 µM,–,80.4 µM,> 100 µM,33.7 µM,32.6 µM,43.4 µM,40.1 µM,48 µM,> 100 µM,> 100 µM,48.1 µM
CC(=O)OCC(C)(COC(C)=O)N1C(=O)C2C3c4ccccc4C(c4ccccc43)C2C1=O (configuration not stated),> 100 µM,> 100 µM,> 100 µM,> 100 µM,> 100 µM,> 100 µM,–,> 100 µM,> 100 µM,> 100 µM,> 100 µM,> 100 µM,> 100 µM,> 100 µM,> 100 µM,> 100 µM
O=c1[nH]nc(-c2ccccc2)n1/N=C/c1ccccc1Cl,> 100 µM,56.5 µM,60.2 µM,> 100 µM,46.5 µM,> 100 µM,> 100 µM,> 100 µM,57.9 µM,57.6 µM,> 100 µM,> 100 µM,> 100 µM,> 100 µM,94.4 µM,32.2 µM
